Tests used:
Experiment in all cases: relative viability (nuclei count vs DMSO), 5 days (fraction); higher = more cells survive
201T = tested on: 201T
Outline: (§1)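 Lung cancer cell lines, seeded in 1536-well plates, were treated the following day by pin tool with a single drug or with five library-drug doses (not always all listed) in √10 steps on top of a fixed anchor-drug dose. Cells were fixed and nuclei stained in one step after 5 days, and nuclei were counted. Relative viability is the nuclei count for treated wells divided by that for vehicle wells, reported as medians of duplicate plates.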

A-427 = tested on: A-427
Outline: as §1

COR-L23 = tested on: COR-L23
Outline: as §1

H3255 = tested on: H3255
Outline: as §1

HCC-44 = tested on: HCC-44
Outline: as §1

LCLC-103H = tested on: LCLC-103H
Outline: as §1

LCLC-97TM1 = tested on: LCLC-97TM1
Outline: as §1

LK-2 = tested on: LK-2
Outline: as §1

LU99A = tested on: LU99A
Outline: as §1

NCI-H1650 = tested on: NCI-H1650
Outline: as §1

NCI-H1793 = tested on: NCI-H1793
Outline: as §1

NCI-H1944 = tested on: NCI-H1944
Outline: as §1

NCI-H2347 = tested on: NCI-H2347
Outline: as §1

NCI-H23 = tested on: NCI-H23
Outline: as §1

NCI-H460 = tested on: NCI-H460
Outline: as §1

NCI-H650 = tested on: NCI-H650
Outline: as §1

NCI-H727 = tested on: NCI-H727
Outline: as §1

NCI-H838 = tested on: NCI-H838
Outline: as §1

PC-14 = tested on: PC-14
Outline: as §1

PC-3 [JPC-3] = tested on: PC-3 [JPC-3]
Outline: as §1

SW 1573 = tested on: SW 1573
Outline: as §1

SW 900 = tested on: SW 900
Outline: as §1

Oc1nc(-c2ccc(C(F)(F)F)cc2)nc2c1CSCC2 [XAV939] + Cc1cc(Nc2cc(N3CCN(C)CC3)nc(Sc3ccc(NC(=O)C4CC4)cc3)n2)n[nH]1 [Tozasertib] (partner 0.1 µM)
relative viability (201T; first compound 0.08 µM): 0.99
relative viability (201T; first compound 0.253 µM): 0.763
relative viability (201T; first compound 0.8 µM): 0.812
relative viability (201T; first compound 2.53 µM): 0.755
relative viability (A-427; first compound 0.08 µM): 0.238
relative viability (A-427; first compound 0.253 µM): 0.164
relative viability (A-427; first compound 0.8 µM): 0.19
relative viability (A-427; first compound 2.53 µM): 0.193
relative viability (COR-L23; first compound 0.08 µM): 0.194
relative viability (COR-L23; first compound 0.253 µM): 0.195
relative viability (COR-L23; first compound 0.8 µM): 0.225
relative viability (COR-L23; first compound 2.53 µM): 0.154
relative viability (H3255; first compound 0.08 µM): 0.699
relative viability (H3255; first compound 0.253 µM): 0.597
relative viability (H3255; first compound 0.8 µM): 0.597
relative viability (H3255; first compound 2.53 µM): 0.544
relative viability (HCC-44; first compound 0.08 µM): 1.46
relative viability (HCC-44; first compound 0.253 µM): 0.799
relative viability (HCC-44; first compound 0.8 µM): 0.996
relative viability (HCC-44; first compound 2.53 µM): 0.789
relative viability (LCLC-103H; first compound 0.08 µM): 0.576
relative viability (LCLC-103H; first compound 0.253 µM): 0.402
relative viability (LCLC-103H; first compound 0.8 µM): 0.444
relative viability (LCLC-103H; first compound 2.53 µM): 0.504
relative viability (LCLC-97TM1; first compound 0.08 µM): 0.344
relative viability (LCLC-97TM1; first compound 0.253 µM): 0.238
relative viability (LCLC-97TM1; first compound 0.8 µM): 0.186
relative viability (LCLC-97TM1; first compound 2.53 µM): 0.352
relative viability (LK-2; first compound 0.08 µM): 0.185
relative viability (LK-2; first compound 0.253 µM): 0.171
relative viability (LK-2; first compound 0.8 µM): 0.157
relative viability (LK-2; first compound 2.53 µM): 0.172
relative viability (LU99A; first compound 0.08 µM): 0.268
relative viability (LU99A; first compound 0.253 µM): 0.261
relative viability (LU99A; first compound 0.8 µM): 0.237
relative viability (LU99A; first compound 2.53 µM): 0.284
relative viability (NCI-H1650; first compound 0.08 µM): 0.471
relative viability (NCI-H1650; first compound 0.253 µM): 0.36
relative viability (NCI-H1650; first compound 0.8 µM): 0.406
relative viability (NCI-H1650; first compound 2.53 µM): 0.332
relative viability (NCI-H1793; first compound 0.08 µM): 0.403
relative viability (NCI-H1793; first compound 0.253 µM): 0.297
relative viability (NCI-H1793; first compound 0.8 µM): 0.306
relative viability (NCI-H1793; first compound 2.53 µM): 0.263
relative viability (NCI-H1944; first compound 0.08 µM): 0.261
relative viability (NCI-H1944; first compound 0.253 µM): 0.228
relative viability (NCI-H1944; first compound 0.8 µM): 0.235
relative viability (NCI-H1944; first compound 2.53 µM): 0.224
relative viability (NCI-H2347; first compound 0.08 µM): 0.613
relative viability (NCI-H2347; first compound 2.53 µM): 0.388
relative viability (NCI-H23; first compound 0.08 µM): 0.403
relative viability (NCI-H23; first compound 0.253 µM): 0.373
relative viability (NCI-H23; first compound 0.8 µM): 0.343
relative viability (NCI-H23; first compound 2.53 µM): 0.357
relative viability (NCI-H460; first compound 0.08 µM): 0.587
relative viability (NCI-H460; first compound 0.253 µM): 0.392
relative viability (NCI-H460; first compound 0.8 µM): 0.45
relative viability (NCI-H460; first compound 2.53 µM): 0.289
relative viability (NCI-H650; first compound 0.08 µM): 0.883
relative viability (NCI-H650; first compound 0.253 µM): 0.691
relative viability (NCI-H650; first compound 0.8 µM): 0.646
relative viability (NCI-H650; first compound 2.53 µM): 0.611
relative viability (NCI-H727; first compound 0.08 µM): 0.69
relative viability (NCI-H727; first compound 0.253 µM): 0.543
relative viability (NCI-H727; first compound 0.8 µM): 0.769
relative viability (NCI-H727; first compound 2.53 µM): 0.62
relative viability (NCI-H838; first compound 0.08 µM): 0.274
relative viability (NCI-H838; first compound 0.253 µM): 0.259
relative viability (NCI-H838; first compound 0.8 µM): 0.276
relative viability (NCI-H838; first compound 2.53 µM): 0.209
relative viability (PC-14; first compound 0.08 µM): 0.673
relative viability (PC-14; first compound 0.253 µM): 0.551
relative viability (PC-14; first compound 0.8 µM): 0.685
relative viability (PC-14; first compound 2.53 µM): 0.544
relative viability (PC-3 [JPC-3]; first compound 0.08 µM): 0.901
relative viability (PC-3 [JPC-3]; first compound 0.253 µM): 0.833
relative viability (PC-3 [JPC-3]; first compound 0.8 µM): 0.857
relative viability (PC-3 [JPC-3]; first compound 2.53 µM): 0.744
relative viability (SW 1573; first compound 0.08 µM): 0.174
relative viability (SW 1573; first compound 0.253 µM): 0.139
relative viability (SW 1573; first compound 0.8 µM): 0.211
relative viability (SW 1573; first compound 2.53 µM): 0.213
relative viability (SW 900; first compound 0.08 µM): 0.663
relative viability (SW 900; first compound 0.253 µM): 0.549
relative viability (SW 900; first compound 0.8 µM): 0.535
relative viability (SW 900; first compound 2.53 µM): 0.323
